Measured values from patent US6979686B1, “Substituted pyrazoles as p38 kinase inhibitors” (Pharmacia Corporation, priority 2001, dated 2005).
Where two headings read alike, the source gives them in different places.

Tests used:
[1] = biological target: T1, human p38 kinase alpha (Homo sapiens, UniProt Q16539); assay: p38 kinase in vitro assay, phosphorylation of biotinylated PHAS-I with 32P-ATP; assay type: biochemical
T1 construct: GST (N, cleaved yes); made in house; host or cells: E. coli DH10B

[2] = test system: TNF-α, U937 human histiocytic lymphoma cell line; assay: LPS stimulation of TNF production by U937 cells; assay type: cell-based; settings: for inhibition at 1 µM: U-937, @ 1.0 uM, read-out: U937 Cell % inhib @ conc.; for U937 Cell % inhib @ conc. / U937 Cell % inhib @ conc. (uM): @ 1.0 uM; for U937 Cell IC50, uM or % inhib @ conc. (uM): % inhib: @ 10.0 uM
Procedure, shortened: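 U937 cells differentiated 24 h with 20 ng/ml PMA, rested 24-48 h, used at 2 million cells/ml. Compounds in 0.1% DMSO final; LPS (E. coli, 100 ng/ml final) stimulation for 4 h at 37° C. Released TNF-α measured by ELISA; IC50 (μM).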

[3] = activated human p38 kinase alpha, PHAS-I substrate, 50 μM unlabeled ATP, read-out: p38 kinase IC50
[4] = Table 5, LPS-stimulated U937 cells, TNF-α, read-out: U937 Cell Assay IC50
[5] = in vitro P38-alpha kinase, read-out: P38 alpha kinase IC50
[6] = Homo sapiens, TNF production, LPS-stimulated U937 cells
[7] = Homo sapiens, U-937, TNF production, human U937 cells stimulated with LPS, read-out: U937 Cell IC50
[8] = in vitro P38-alpha kinase inhibition, read-out: P38 alpha kinase IC50
[9] = Homo sapiens, TNF production, U937 cells stimulated with LPS
[10] = TNF production, U937 cells stimulated with LPS

T1 sequence (Q16539 whole entry): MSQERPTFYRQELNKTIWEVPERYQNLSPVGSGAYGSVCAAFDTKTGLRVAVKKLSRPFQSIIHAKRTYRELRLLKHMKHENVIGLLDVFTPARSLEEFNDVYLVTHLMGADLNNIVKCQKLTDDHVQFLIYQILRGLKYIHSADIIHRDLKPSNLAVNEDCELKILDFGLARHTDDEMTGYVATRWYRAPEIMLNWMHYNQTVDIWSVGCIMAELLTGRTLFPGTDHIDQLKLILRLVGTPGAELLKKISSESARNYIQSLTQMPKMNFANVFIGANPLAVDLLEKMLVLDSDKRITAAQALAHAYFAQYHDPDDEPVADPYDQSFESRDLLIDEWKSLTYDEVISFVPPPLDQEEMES

SMILES | IC50 [1, 5] [nM] | IC50 [2, 7] [µM] | IC50 [1, 8] [nM] | other results
CCOc1ccc(-c2n[nH]c(C)c2-c2ccncc2)cc1 [Example A-47] |  |  |  | IC50 [1, 3]: 3200 nM; IC50 [2, 4]: 2.36 µM
CN(C)CCNC(=O)NCCCc1[nH]nc(-c2ccc(F)cc2)c1-c1ccncc1 [Example B-1302] | 23 |  |  | inhibition at 1 µM [2, 6]: 11%
O=C(NCCCc1[nH]nc(-c2ccc(F)cc2)c1-c1ccncc1)NCCCn1ccnc1 [Example B-1297] | 20 | > 1 |  | 
O=C(NCCc1[nH]nc(-c2ccc(F)cc2)c1-c1ccncc1)c1ccc(C(F)(F)F)cc1 [Example B-1155] |  |  | 3220 | inhibition at 1 µM [2, 9]: 30%
COc1cccc(-c2n[nH]c(C)c2-c2ccncc2)c1 [Example A-44] |  |  |  | IC50 [1, 3]: < 100 nM; IC50 [2, 4]: 0.477 µM
C=Cc1ccc(S(=O)(=O)NCc2[nH]nc(-c3ccc(F)cc3)c2-c2ccncc2)cc1 [Example B-0140] |  |  |  | P38 alpha kinase % inhib @ conc. ([1]; @ 10.0 uM): 67% @; U937 Cell % inhib @ conc. [2, 10]: 9.0% @
Cc1c(-c2ccncc2)c(-c2ccc(F)cc2)nn1CC(=O)N1CCC(N(C)C(=O)OC(C)(C)C)C1 (centres unmarked) [Example B-2389] |  |  |  | P38 alpha kinase IC50, uM or % inhib @ conc. (uM): % inhib ([1]; @ 10.0 uM): 39.0% @; U937 Cell IC50, uM or % inhib @ conc. (uM): % inhib [2, 10]: 29.0% @
CNC(=O)CCC(NC(=O)Nc1c(C)cccc1C)c1[nH]nc(-c2ccc(F)cc2)c1-c1ccncc1 (centres unmarked) [Example B-0882] |  |  | 1480 | inhibition at 1 µM [2, 9]: 9%
CCCCCSc1cccc(NC(=O)Cn2nc(-c3ccc(F)cc3)c(-c3ccncc3)c2C)c1 [Example B-2447] |  |  |  | P38 alpha kinase IC50, uM or % inhib @ conc. (uM): % inhib ([1]; @ 10.0 uM): 94.0% @; IC50 ([2]; TNF production, U937 cells stimulated with LPS, read-out: U937 Cell IC50, uM or % inhib @ conc. (uM): IC50): > 10 µM
O=S(=O)(c1ccc(-c2ccon2)s1)N1CCC(c2[nH]nc(-c3ccc(F)cc3)c2-c2ccncc2)CC1 [Example B-1440] | 870 |  |  | inhibition at 1 µM [2, 6]: 3%
Cc1ccc(S(=O)(=O)N2CCC(c3[nH]nc(-c4ccc(F)cc4)c3-c3ccncc3)CC2)cc1 [Example B-1473] | 1240 |  |  | inhibition at 1 µM [2, 6]: 14%
O=C(NCCc1[nH]nc(-c2ccc(F)cc2)c1-c1ccncc1)Nc1cccc(Cl)c1Cl [Example B-0980] |  |  |  | P38 alpha kinase % inhib @ conc. (uM) ([1]; @ 1.0 uM): 68.0% @; U937 Cell % inhib @ conc. (uM) [2, 10]: 31.0% @
CCNC(=O)N1CCC(c2[nH]nc(-c3ccc(F)cc3)c2-c2ccncc2)CC1 [Example B-1381] | 55 | 0.73 |  | 
O=C(NC(Cc1ccccc1)c1[nH]nc(-c2ccc(F)cc2)c1-c1ccncc1)C1CC1 (centres unmarked) [Example B-0805] |  | > 1 | 710 | 
O=S(=O)(NCCc1[nH]nc(-c2ccc(F)cc2)c1-c1ccncc1)c1ccc(F)cc1 [Example B-1013] |  |  |  | P38 alpha kinase % inhib @ conc. (uM) ([1]; @ 1.0 uM): 85.0% @; U937 Cell % inhib @ conc. (uM) [2, 10]: 7.0% @
CNC(=O)CCC(NC(=O)COC)c1[nH]nc(-c2ccc(F)cc2)c1-c1ccncc1 (centres unmarked) [Example B-0870] |  | > 1 | 3130 | 
CN(C)c1ccc(CNC(=O)NCCCc2[nH]nc(-c3ccc(F)cc3)c2-c2ccncc2)cc1 [Example B-1301] | 120 |  |  | inhibition at 1 µM [2, 6]: 15%
CCNC(=O)NC(CCC(=O)NC)c1[nH]nc(-c2ccc(F)cc2)c1-c1ccncc1 (centres unmarked) [Example B-0883] |  | > 1 | 1060 | 
O=[N+]([O-])c1ccc(S(=O)(=O)NCc2[nH]nc(-c3ccc(F)cc3)c2-c2ccncc2)cc1 [Example B-0115] |  |  |  | P38 alpha kinase % inhib @ conc. ([1]; @ 1.0 uM): 47.0% @; U937 Cell % inhib @ conc. [2, 10]: 2.0% @
CNC(=O)CCC(NC(=O)Nc1ccccc1F)c1[nH]nc(-c2ccc(F)cc2)c1-c1ccncc1 (centres unmarked) [Example B-0881] |  | > 1 | 1360 | 
O=C(NC(Cc1ccccc1)c1[nH]nc(-c2ccc(F)cc2)c1-c1ccncc1)c1ccccc1C(F)(F)F (centres unmarked) [Example B-0812] |  | > 1 | 2120 | 
O=C(NCCCc1[nH]nc(-c2ccc(F)cc2)c1-c1ccncc1)NCC1CC1 [Example B-1316] | 26 |  |  | inhibition at 1 µM [2, 6]: 36%
Cc1c(-c2ccncc2)c(-c2ccc(F)cc2)nn1CC(=O)Nc1ccc(CCC(=O)c2cccnc2)cc1 [Example B-2445] |  |  |  | P38 alpha kinase IC50, uM or % inhib @ conc. (uM): % inhib ([1]; @ 10.0 uM): 94.0% @; U937 Cell IC50, uM or % inhib @ conc. (uM): % inhib [2, 10]: 15.0% @
CN(C)CCCNC(=O)NCCCc1[nH]nc(-c2ccc(F)cc2)c1-c1ccncc1 [Example B-1303] | 80 | > 1 |  | 
CNC(=O)CCC(NC(=O)c1ccc(C)cc1)c1[nH]nc(-c2ccc(F)cc2)c1-c1ccncc1 (centres unmarked) [Example B-0873] |  | > 1 | 6920 | 
